Among the data in ChEMBL document CHEMBL6109124, “Identification of effective anti-osteosarcoma agents via screening of an in-house NQO1-targeted compound library” (Bioorg Med Chem, 2025) are inhibition of growth, selectivity ratio and IC50 values, retold here.

For data set [1], the system named is HOS-TE85. Nature of the data set: Cytotoxicity against human MNNG cells assessed as cell growth inhibition at 1 uM measured after 72 hrs by MTT assay relative to control. Type of data set: functional. The following applies: read-out: GI.
Data set [2] can be described thus: Selectivity index, ratio of IC50 for cytotoxicity against HUVEC to IC50 for cytotoxicity against human MNNG cells. The following applies: HUVEC and human MNNG cells, read-out: Ratio IC50. Type of data set: toxicity, cell-based.
A short description of data set [3]: Cytotoxicity against HUVEC assessed as cell growth inhibition measured after 72 hrs by MTT assay. The data set is classed as toxicity, cell-based. The following applies: human, HUVEC cells. (In general: Formazan colour is commonly taken as a measure of viable cells.)
Data set [4] relates to HOS-TE85. Nature of the data set: Cytotoxicity against human MNNG cells assessed as cell growth inhibition measured after 72 hrs by MTT assay. Type of data set: functional, cell-based. The conditions noted are these: HOS-TE85, 72 h.
Data set [5] relates to HOS-TE85. Nature of the data set: Cytotoxicity against human MNNG cells assessed as cell growth inhibition at 10 uM measured after 72 hrs by MTT assay relative to control. The data set is classed as functional. The following applies: read-out: GI.

For orientation: IC50 means the point on the concentration scale where inhibition reaches its midpoint. As for `Cc1ccc2c(c1)-c1nc(C#N)c(C#N)nc1C2=O`, the inhibition of growth at 1 µM in data set [1] is 35.4%. Moreover, the selectivity ratio in data set [2] was found to be 2.08. Further, in data set [3], the IC50 at 72 h was found to be 3.85 µM. The IC50 in data set [4] was found to be 1.85 µM. In addition, the inhibition of growth at 10 µM in data set [5] is 99.9%.
In the same order, the values of `N#Cc1nc2c(nc1C#N)-c1cc(F)c(F)cc1/C2=N\NC1CCCCC1` are 31.2%, 7.73, 17.2 µM, 2.22 µM and 90.4%.
